# *1 amine or outer side, *2 acyl side, *3 side chain or, on linkers, in order; H or OH if unused. Where a SMILES comes first, the peptide text is derived from it. Bridges are numbered along the chain shown (N, C = ends). [ ]: non-standard residue; d: D form. The star is where a group is joined. ξ: configuration not given here. NMeAla(4-thiazolyl) = CN[C@@H](Cc1cscn1)C(=O)O; Tyr(3-OMe) = COc1cc(C[C@H](N)C(=O)O)ccc1O; NMeW = CN[C@@H](Cc1c[nH]c2ccccc12)C(=O)O; X7 = O=C(C[C@H](COCCO)N[*:1])[*:2]; NMeF = CN[C@@H](Cc1ccccc1)C(=O)O; NMeξIle = CC[C@H](C)C(NC)C(=O)O; NMeL = CN[C@@H](CC(C)C)C(=O)O; NMeAbu = CC[C@H](NC)C(=O)O; NMeA = CN[C@@H](C)C(=O)O; Piperidide = C1CCN(*)CC1; NBuGly = CCCCNCC(=O)O; NPrGly = CCCNCC(=O)O; ξV = CC(C)C(N)C(=O)O; Sar = CNCC(=O)O; tBu = CC(C)(C)*
# Experiment: in vitro
# Settings: human, Caco-2, Caco-2 (cm/sec)
row,Compound,Papp [×10⁻⁶ cm/s]
1,CC(C)C[C@@H]1NC(=O)[C@H](Cc2ccccc2)N(C)C(=O)C(C(C)C)NC(=O)C[C@@H](C(=O)N2CCCCC2)NC(=O)[C@H](Cc2ccccc2)N(C)C(=O)[C@H](Cc2ccccc2)N(C)C(=O)[C@H](COC(C)(C)C)NC(=O)[C@H](CC(C)C)N(C)C(=O)CN(C)C(=O)[C@H]([C@@H](C)O)NC(=O)[C@H](CC(C)C)N(C)C1=O (stereo partly drawn) [pd215] ([ξV][NMeF]L[NMeL]T[Sar][NMeL]S(tBu)[NMeF][NMeF]D-Piperidide; lactam N-11),1.2
2,CC[C@H]1C(=O)N[C@@H](CC(C)C)C(=O)N(C)[C@@H](CC(C)C)C(=O)N(C)[C@@H](Cc2ccccc2)C(=O)N[C@@H](Cc2ccc(O)cc2)C(=O)N(C)[C@@H](CC(C)C)C(=O)N(C)[C@@H](CC(C)C)C(=O)N[C@@H]([C@@H](C)O)C(=O)N(C)CC(=O)N(C)[C@@H](CC(C)C)C(=O)N[C@H](C(=O)N2CCCCC2)CC(=O)N1C [Compound F05] ([NMeAbu]L[NMeL][NMeF]Y[NMeL][NMeL]T[Sar][NMeL]D-Piperidide; lactam N-11),0.38
3,CCCCN1CC(=O)N(C)[C@@H](CC(C)C)C(=O)N[C@@H](COC(C)(C)C)C(=O)N(C)[C@@H](CC(C)C)C(=O)N(C)[C@@H](CC)C(=O)N[C@H](C(=O)N2CCCCC2)CC(=O)N[C@H](CC(C)C)C(=O)N(C)[C@@H](Cc2ccccc2)C(=O)N[C@@H](Cc2ccc(O)c(OC)c2)C(=O)N(C)[C@@H](CC(C)C)C(=O)N[C@@H]([C@@H](C)O)C1=O [Compound E02] ([dL][NMeF][Tyr(3-OMe)][NMeL]T[NBuGly][NMeL]S(tBu)[NMeL][NMeAbu]D-Piperidide; lactam N-11),0.31
4,CC[C@H](C)C1C(=O)N[C@@H]([C@@H](C)O)C(=O)N(C)CC(=O)N(C)[C@@H](CC(C)C)C(=O)N[C@H](C(=O)N2CCCCC2)CC(=O)N(C)[C@@H](C)C(=O)N[C@@H](CC(C)C)C(=O)N(C)[C@@H](CC(C)C)C(=O)N(C)[C@@H](Cc2c[nH]c3ccccc23)C(=O)N[C@@H](C(C)C)C(=O)N(C)[C@@H](CC(C)C)C(=O)N1C (stereo partly drawn) [pd102] ([NMeA]L[NMeL][NMeW]V[NMeL][NMeξIle]T[Sar][NMeL]D-Piperidide; lactam N-11),1.1
5,CCCN1CC(=O)N(C)[C@@H](CC(C)C)C(=O)N[C@@H](CC(C)C)C(=O)N(C)[C@@H](Cc2ccccc2)C(=O)N(C)[C@@H](CC(C)C)C(=O)N[C@H](C(=O)N2CCCCC2)CC(=O)N[C@H](CC(C)C)C(=O)N(C)[C@@H](Cc2ccccc2)C(=O)N[C@@H](COCCO)CC(=O)N(C)[C@@H](CC(C)C)C(=O)N[C@@H]([C@@H](C)O)C1=O [AP20] ([dL][NMeF][X7][NMeL]T[NPrGly][NMeL]L[NMeF][NMeL]D-Piperidide; lactam N-11),0.37

# Same assay, conditions: human, Caco-2, Caco-2 (cm/sec) Papp
row,Compound,Papp [×10⁻⁶ cm/s]
1,CC(C)C[C@@H]1NC(=O)[C@H](Cc2ccccc2)N(C)C(=O)[C@H](C)N(C)C(=O)C[C@@H](C(=O)N2CCCCC2)NC(=O)[C@H](CC(C)C)N(C)C(=O)[C@H](Cc2ccccc2)N(C)C(=O)[C@H](Cc2ccccc2)NC(=O)[C@H](Cc2cscn2)N(C)C(=O)[C@H](C)N(C)C(=O)[C@H]([C@@H](C)O)NC(=O)[C@H](CC(C)C)N(C)C1=O [pd226] ([NMeA][NMeF]L[NMeL]T[NMeA][NMeAla(4-thiazolyl)]F[NMeF][NMeL]D-Piperidide; lactam N-11),0.68
2,CC(C)C[C@H]1C(=O)N(C)[C@@H](Cc2ccccc2)C(=O)N(C)[C@@H](CC(C)C)C(=O)N[C@H](C(=O)N(C)[C@@H](Cc2ccccc2)C(=O)N[C@@H](Cc2ccccc2)C(=O)N2CCCCC2)CC(=O)N[C@H](C(C)C)C(=O)N[C@@H](C)C(=O)N[C@@H]([C@@H](C)O)C(=O)N(C)[C@@H](C)C(=O)N[C@@H](Cc2ccccc2)C(=O)N1C [pd241] ([dV]AT[NMeA]F[NMeL][NMeF][NMeL]D[NMeF]F-Piperidide; lactam N-9),0.058

# — patent US20230096766A1, “AMINO ACID HAVING FUNCTIONAL GROUP CAPABLE OF INTERMOLECULAR HYDROGEN BONDING, PEPTIDE COMPOUND CONTAINING SAME AND METHOD FOR PRODUCTION THEREOF” (Chugai Seiyaku Kabushiki Kaisha, priority 2018, published 2023)
